Reference: US11129897B2, “Fast-acting plant-based medicinal compounds and nutritional supplements” (RECEPTOR HOLDINGS, INC., priority 2016, dated 2021)

Experiments:
[1] = cited from earlier work
[2] = versus molecule without SNAC; in words; cited from earlier work
study participants [3] = assay: Onset and duration of action of orally administered Cannabis/SNAC composition at a low SNAC dose (Example 3, 100 mg SNAC); assay type: in vivo, human; conditions: oral; 100 mg SNAC with Cannabis concentrate (8 mg THC)
Description: This study was designed to assess the utility of SNAC in enabling a rapid-acting oral form of Cannabis at a low dose.
Selection of Participants. Three study participants were recruited to ingest Cannabis compositions and record the onset, duration, and intensity of Cannabis-induced euphoria and/or dysphoria.
(§1) Formulations. The selected Cannabis concentrate is commercially available and was provided to participants in an ethanol solution. The concentrate contains 8 mg THC per dose. It was selected because it contains a high percentage of THC, which provides a noticeable effect on user-reported “euphoria”.
(§2) Methods. For the Control experiment, each participant mixed the Cannabis concentrate with 15 ml (one tablespoon) of aqueous ethanol, and immediately swallowed the mixture.
(§3) For both the Control experiment and the Test experiment, each participant recorded the time of dose administration, the time of onset of euphoria and/or dysphoria, and the observed level of euphoria and/or dysphoria in fifteen minute intervals for five hours following administration of the Cannabis dose. Euphoria and dysphoria were reported using a scale value, in a range from 1-5.

study participants [4] = assay: Onset and duration of action of orally administered Cannabis/SNAC composition (Example 2, 200 mg SNAC); assay type: in vivo, human; conditions: oral; 200 mg SNAC with Cannabis concentrate (8 mg THC)
Description: This study was designed to assess the utility of SNAC in enabling a rapid-acting oral form of Cannabis.
Selection of Participants. Six study participants were recruited to ingest Cannabis compositions and record the onset, duration, and intensity of Cannabis-induced euphoria and/or dysphoria.
as §1, §2
as §3, with “1-10.” for “1-5.”

| Compound | absorption when co-administered with an N-acylated fatty amino acid (e.g., SNAC) [2] | also measured |
| --- | --- | --- |
| CCCCCc1cc(O)c2c(c1)OC(C)(C)[C@@H]1CCC(C)=C[C@@H]21 [THC, delta-9-tetrahydrocannabinol] |  | appetite stimulant effect may continue after administration ([1]; after oral administration): ≥ 24 h; duration of action for psychoactive effects ([1]; after oral administration): 4 to 6 h; peak effect (time) ([1]; after oral administration): 2 to 4 h; administered dose that reaches the systemic circulation ([1]; oral, first pass hepatic metabolism and poor aqueous solubility): 10-20% |
| CCCCCN(C)CCC(O)(P(=O)(O)O)P(=O)(O)O [ibandronate] | improved absorption |  |
| GLP-1: GLP-1, water-soluble molecule with SNAC-improved absorption | improved absorption |  |
| MT-II | improved absorption |  |
| PTH 1-34: parathyroid hormone 1-34 | improved absorption |  |
| calcitonin: calcitonin, water-soluble molecule with SNAC-improved absorption | improved absorption |  |
| heparin | improved absorption |  |
| peptide yy: peptide yy, water-soluble molecule with SNAC-improved absorption | improved absorption |  |
| rhGH: recombinant human growth hormone | improved absorption |  |
| sodium N-[8-(2-hydroxybenzoyl) amino] caprylate [SNAC] |  | effect of the absorption enhancer on the duration of action of Cannabis (study participants [3]): no effect on the duration of action; effect of the absorption enhancer on the duration of action of Cannabis (study participants [4]): no effect on the duration of action |
| vitamin B12 | improved absorption |  |
